Ends that are not written are not given here.
System: RASGRP2 78-87-specific T cell clones (TCCs)
Assay: T cell reactivity in RASGRP2 (78-87) specific T cell clones (3H-thymidine assay)
Assay type: cell-based, human
Conditions: 72 hours; four DRB1*15:01-restricted clones; presented by BLS DR2b cells; Figure 6
Method: Four RASGRP2 78-87-specific T cell clones (TCCs) (cf. Wang et al., 2020, Cell, 183(5):1264-1281) were tested by 3H-thymidine incorporation (72 hours) for their responses against the biotinylated RASGRP2 (74-91) (SEQ ID NO: 2) peptide "bioRASGRP2 74-91" and a positive control, i.e. stimulation with anti-CD2/3/28-coupled beads. Each of the clones is DRB1*15:01-restricted.
Proliferation was measured 72 h after stimulation by 3H-thymidine (Hartmann Analytic, Braunschweig, Germany) incorporation in a scintillation counter (Wallac 1450, PerkinElmer, Rodgau-Jürgesheim, Germany). Depicted is the fold change over unstimulated control. Each dot represents the mean of 3 repeat wells for each clone. Peptides were presented in the assay by BLS cells transfected with DRA*01:01 and DRB1*15:01 (the heterodimer is referred to as BLS DR2b).

| Substance | proliferative response (3H-thymidine incorporation) |
| --- | --- |
| biotinylated RASGRP2 (74-91): RASGRP2 (74-91) (SEQ ID NO: 2) coupled to a Biotin-PEG linker (Maleimide-PEG2-Biotin) (KTCHLVRYWISAFPAEFD; also: coupled to Maleimide-PEG2-Biotin linker, site not given here; listed as Homo sapiens) | positive proliferative response |

System: TCC14
Assay: Antigen specificity of TCC14 (co-cultivation with monocytes and peptide-coupled RBCs, fluorospot)
Assay type: cell-based, human
Conditions: irrelevant peptide; 48 hours; Figure 15
Method: In order to evaluate whether the IL-10 and IFN-γ secretion upon co-culturing TCC14 with active monocytes and peptide-coupled RBCs is antigen-specific, biotinylated SIN3A* peptide ([…]) (SEQ ID NO: 38) was coupled to RBCs and co-cultured with TCC14 and active monocytes. […] Therefore, it was tested if the SIN3A*-coupled RBCs have any effect on TCC14. Soluble SIN3A* peptide (QPVEFNHAIHYVN) (SEQ ID NO: 39) was used for stimulation.
Monocytes were magnetically isolated from PBMCs of a DR15 donor and seeded at 50×10^3 in each well. 25 ×10^3 of the TCC14 was seeded in each well (final volume 200 µl). Coupling to RBCs was performed with 1.58 mg/ml (0.132 mg/ml × 12) of the respective peptide. 200×10^3 RBCs were added to each well.
IFN-α was directly added into the wells at the time of seeding the cells at 10000 U/ml. In the samples with soluble peptides, 10 µM of the peptides was added to the wells. Plates were incubated for 48 hours and stained for IFN-γ, IL-10 and IL-17 according to the manufacturer's instructions (see fluorospot assay supra).

| Substance | effect on the T cell clone (IL-10 and IFN-γ secretion) |
| --- | --- |
| QPVEFNHAIHYVN [SIN3A*, irrelevant peptide, a tumor-specific antigen not recognized by TCC14] | neither stimulatory nor inhibitory |

System: not listed separately
Assay: Peptide solubility test in saline (visual: cloudy = insoluble, clear = soluble)
Conditions: at a concentration of 10 mg/ml; visual assessment
Method: MBP, MOG and PLP peptides were also tested.
Peptides were added to saline at different concentrations and it was visually assessed whether the resulting sample was cloudy (peptide insoluble) or clear (peptide soluble).

| solubility in saline | Substance |
| --- | --- |
| soluble in saline | FRFTPFKQAVKETCA [TSTA3-4 (296-310), FRFTPFKQAVKETCA] |
| soluble in saline | KTCHLVRYWISAFPAEFD [RASGRP2 (74-91), KTCHLVRYWISAFPAEFD] |
| soluble in saline | LSVGEEDEVS [TSTA3-3 (242-251), LSVGEEDEVS] |
| soluble in saline | PHNSNFGYSYAKRMI [TSTA3-2 (136-150), PHNSNFGYSYAKRMI] |
| soluble in saline | TAQTRALFEKVQPTH [TSTA3-1 (51-65), TAQTRALFEKVQPTH] |

Same assay, conditions: concentration not given; visual assessment

| Substance | solubility in saline |
| --- | --- |
| LVRYWISAFP [RASGRP2 78-87, LVRYWISAFP] | not soluble in saline |
| LVRYWISAFPAEFDL [RASGRP2 78-92, LVRYWISAFPAEFDL] | insoluble in saline |
| LVRYWISAFPAEFDLNPE [RASGRP2 78-95, LVRYWISAFPAEFDLNPE] | insoluble in saline |

Further lines, results first:

| solubility in saline | Substance |
| --- | --- |
| insoluble in saline | SLQVKTCHLVRYWISAFPAEFDLNPE [RASGRP2 70-95] |
| insoluble in saline | SNSLQVKTCHLVRYWISAFPAEFDLNPELA [RASGRP2 68-97] |

Reference: patent publication EP4553083A1, “PEPTIDES AND THEIR USE FOR THE TREATMENT AND/OR PREVENTION OF MULTIPLE SCLEROSIS” (Cellerys AG, priority 2023, dated 2025)
